Patent US7872018B2, “Compounds and methods for kinase modulation, and indications therefor” (Plexxikon, Inc., priority 2006, dated 2011)

Assays:
Fms = molecular target: T1, Fms (Homo sapiens, UniProt P07333); assay: Fms biochemical assay (AlphaScreen or 33P-ATP); settings: under the test conditions employed; read-out: IC50 toward kinase Fms
T1 construct: purchased Upstate Biotech 14-551
Text: Each sample was at 5% DMSO.

Kit = molecular target: T2, Kit (Homo sapiens, UniProt P10721); assay: c-kit biochemical assay (AlphaScreen or 33P-ATP); settings: under the test conditions employed; read-out: IC50 toward kinase Kit
T2 construct: P1332.N6 BI PTP KIT M552-K948-X COD; made in house; host or cells: E. coli BL21(DE3)RIL, co-expressed with PTP1B
Protocol: C-kit kinase was at 1 ng per sample.
The c-kit enzyme used in the above assay was either obtained from Cell Signaling Technology (Cat. #7754) or was prepared as follows: A plasmid encoding kit (DNA and encoded protein sequences shown below) was engineered using common polymerase chain reaction (PCR) methods. Complementary DNA cloned from various human tissues were purchased from Invitrogen, and these were used as substrates in the PCR reactions. Specific custom synthetic oligonucleotide primers were designed to initiate the PCR product, and also to provide the appropriate restriction enzyme cleavage sites for ligation with the plasmids. The entire sequence encoding the enzyme was made through a gene synthesis procedure, using custom synthetic oligonucleotides covering the entire coding sequence (Invitrogen, see below).

TrkA = molecular target: T3, TrkA (Homo sapiens, UniProt P04629); assay: TrkA biochemical assay (AlphaScreen); settings: under the test conditions employed; read-out: IC50 toward kinase TrkA
T3 construct: purchased Upstate Biotech 14-571
Protocol: Compounds tested were dissolved in DMSO (1 μL) and added to a white 384-well plate (Costar #3705). […] Each sample was at 5% DMSO. The plate was then incubated for 40 minutes at room temperature.

HGK = HGK (Homo sapiens, UniProt O95819); assay: HGK (MAP4K4) biochemical assay (AlphaScreen); settings: under the test conditions employed; read-out: IC50 toward kinase HGK
Protocol: Substrate was 10 nM biotin-ERM (T567/T564/T558, Cell Signaling, Inc., cat#1344). MAP4K4 kinase was at 0.5 ng per sample. After incubation of the kinase reaction for 40 min at room temperature, 5 μl of donor beads and protein A acceptor beads (Perkin Elmer Life Science, cat#67606017) at final concentration 1 μg/ml in stop buffer (20 mM Tris, pH 7.4, 200 mM Nacl, 100 mM EDTA, 0.03% BSA) was added, along with Phospho-ERM Antibody (T567/T564/T558, Cell Signaling, Inc., cat#3141) at 1:1000 dilution. […] Phosphorylated substrate results in binding of the antibody which binds to protein A acceptor bead and association of the donor and acceptor beads is such that the signal correlates with kinase activity.

T1 sequence (P07333 20-972): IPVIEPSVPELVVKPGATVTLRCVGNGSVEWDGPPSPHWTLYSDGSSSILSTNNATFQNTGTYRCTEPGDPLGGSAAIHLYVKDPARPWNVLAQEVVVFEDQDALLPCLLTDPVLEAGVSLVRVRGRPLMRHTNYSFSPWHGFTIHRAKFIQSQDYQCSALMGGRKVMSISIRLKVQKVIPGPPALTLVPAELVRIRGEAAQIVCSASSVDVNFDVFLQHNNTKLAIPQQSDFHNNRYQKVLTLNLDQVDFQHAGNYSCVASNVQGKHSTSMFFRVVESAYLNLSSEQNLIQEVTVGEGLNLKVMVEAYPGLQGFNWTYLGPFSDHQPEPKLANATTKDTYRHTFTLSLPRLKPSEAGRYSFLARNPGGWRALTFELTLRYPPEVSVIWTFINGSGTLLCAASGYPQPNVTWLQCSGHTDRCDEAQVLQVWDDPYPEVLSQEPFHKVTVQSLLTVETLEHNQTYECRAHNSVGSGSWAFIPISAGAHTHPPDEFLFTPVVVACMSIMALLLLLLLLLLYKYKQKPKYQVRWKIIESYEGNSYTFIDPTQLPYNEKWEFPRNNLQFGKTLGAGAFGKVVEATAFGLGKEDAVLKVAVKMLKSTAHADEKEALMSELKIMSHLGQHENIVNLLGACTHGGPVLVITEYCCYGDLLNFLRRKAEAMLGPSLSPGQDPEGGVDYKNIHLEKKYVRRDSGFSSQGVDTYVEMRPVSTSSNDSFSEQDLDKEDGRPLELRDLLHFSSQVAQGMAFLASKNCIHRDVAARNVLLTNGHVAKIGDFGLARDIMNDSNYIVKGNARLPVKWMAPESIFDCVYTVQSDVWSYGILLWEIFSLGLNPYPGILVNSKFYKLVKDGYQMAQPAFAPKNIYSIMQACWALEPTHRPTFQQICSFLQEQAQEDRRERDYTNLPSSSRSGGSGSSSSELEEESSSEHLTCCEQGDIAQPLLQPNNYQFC
T2 sequence (P10721 552-948): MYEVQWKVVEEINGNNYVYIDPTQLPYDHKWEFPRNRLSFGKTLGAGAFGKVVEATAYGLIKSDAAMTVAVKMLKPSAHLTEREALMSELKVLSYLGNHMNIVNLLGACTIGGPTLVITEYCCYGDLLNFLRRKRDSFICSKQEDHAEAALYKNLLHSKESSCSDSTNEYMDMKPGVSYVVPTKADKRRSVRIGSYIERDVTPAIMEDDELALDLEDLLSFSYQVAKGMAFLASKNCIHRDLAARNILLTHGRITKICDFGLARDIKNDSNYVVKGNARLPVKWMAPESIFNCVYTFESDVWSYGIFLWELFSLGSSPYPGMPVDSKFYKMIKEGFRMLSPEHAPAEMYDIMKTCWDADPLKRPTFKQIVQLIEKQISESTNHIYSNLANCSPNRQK
Chain of HGK (O95819 whole entry): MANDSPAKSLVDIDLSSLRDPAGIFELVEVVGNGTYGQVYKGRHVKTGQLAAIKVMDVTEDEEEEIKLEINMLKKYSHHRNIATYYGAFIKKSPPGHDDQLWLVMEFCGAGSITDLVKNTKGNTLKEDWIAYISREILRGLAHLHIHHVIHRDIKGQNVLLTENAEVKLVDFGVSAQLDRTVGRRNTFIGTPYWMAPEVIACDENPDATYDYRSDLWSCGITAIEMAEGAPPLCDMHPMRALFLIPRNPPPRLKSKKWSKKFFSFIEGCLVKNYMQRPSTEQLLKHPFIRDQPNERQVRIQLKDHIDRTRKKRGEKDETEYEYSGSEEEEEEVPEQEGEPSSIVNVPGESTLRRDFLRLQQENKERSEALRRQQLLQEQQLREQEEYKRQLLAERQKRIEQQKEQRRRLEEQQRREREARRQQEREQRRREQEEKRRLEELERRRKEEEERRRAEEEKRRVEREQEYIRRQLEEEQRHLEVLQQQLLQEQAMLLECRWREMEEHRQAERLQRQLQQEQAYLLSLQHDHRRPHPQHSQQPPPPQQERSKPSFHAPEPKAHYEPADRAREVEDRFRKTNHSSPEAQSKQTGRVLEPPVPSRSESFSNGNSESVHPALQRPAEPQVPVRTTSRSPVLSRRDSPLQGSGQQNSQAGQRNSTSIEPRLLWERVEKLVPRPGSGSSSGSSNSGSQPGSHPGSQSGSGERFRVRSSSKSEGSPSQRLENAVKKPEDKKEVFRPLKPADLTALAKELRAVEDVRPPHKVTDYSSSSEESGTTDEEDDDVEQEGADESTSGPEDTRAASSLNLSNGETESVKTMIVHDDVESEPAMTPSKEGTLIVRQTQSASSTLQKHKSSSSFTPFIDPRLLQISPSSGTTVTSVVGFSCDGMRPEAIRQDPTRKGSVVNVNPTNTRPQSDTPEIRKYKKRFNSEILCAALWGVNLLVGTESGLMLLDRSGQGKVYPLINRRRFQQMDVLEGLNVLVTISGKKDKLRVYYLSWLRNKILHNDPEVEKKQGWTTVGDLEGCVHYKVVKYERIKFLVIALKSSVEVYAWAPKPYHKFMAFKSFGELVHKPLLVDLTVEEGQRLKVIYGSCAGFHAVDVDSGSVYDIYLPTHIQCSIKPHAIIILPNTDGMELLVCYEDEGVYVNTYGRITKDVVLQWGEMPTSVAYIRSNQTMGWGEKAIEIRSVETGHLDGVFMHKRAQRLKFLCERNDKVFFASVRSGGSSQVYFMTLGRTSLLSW
T3 sequence (P04629 33-796): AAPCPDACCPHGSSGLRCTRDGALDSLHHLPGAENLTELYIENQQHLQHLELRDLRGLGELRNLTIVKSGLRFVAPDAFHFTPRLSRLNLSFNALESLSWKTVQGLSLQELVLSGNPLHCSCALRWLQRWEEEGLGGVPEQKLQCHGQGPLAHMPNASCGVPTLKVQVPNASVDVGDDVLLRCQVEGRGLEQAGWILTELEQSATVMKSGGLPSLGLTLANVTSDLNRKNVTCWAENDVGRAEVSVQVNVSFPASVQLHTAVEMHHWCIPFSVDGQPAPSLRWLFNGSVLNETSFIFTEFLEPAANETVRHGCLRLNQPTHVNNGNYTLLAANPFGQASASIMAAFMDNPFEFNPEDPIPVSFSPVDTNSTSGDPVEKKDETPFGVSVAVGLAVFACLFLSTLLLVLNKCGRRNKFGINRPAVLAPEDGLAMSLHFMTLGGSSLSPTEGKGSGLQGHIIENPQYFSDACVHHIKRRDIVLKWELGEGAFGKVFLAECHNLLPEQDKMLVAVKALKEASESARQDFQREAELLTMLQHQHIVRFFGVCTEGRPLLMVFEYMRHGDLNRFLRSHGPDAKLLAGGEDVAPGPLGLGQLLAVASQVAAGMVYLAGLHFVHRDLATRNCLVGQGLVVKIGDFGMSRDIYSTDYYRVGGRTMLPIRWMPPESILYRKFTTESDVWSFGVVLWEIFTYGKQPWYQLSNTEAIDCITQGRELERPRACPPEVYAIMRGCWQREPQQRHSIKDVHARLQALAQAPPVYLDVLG

Structure (SMILES)	IC50 (Fms)	also measured
CCOc1c(OCc2cc(C)n(C)n2)cccc1C(=O)c1c[nH]c2ncccc12 [P-2134, [3-(1,5-Dimethyl-1H-pyrazol-3-ylmethoxy)-2-ethoxy-phenyl]-(1H-pyrrolo[2,3-b]pyridin-3-yl)-methanone]	≤ 10 µM	
CCOc1c(OCc2ccc(Cl)cc2Cl)cccc1C(=O)c1c[nH]c2ncccc12 [P-2130, [3-(2,4-Dichloro-benzyloxy)-2-ethoxy-phenyl]-(1-pyrrolo[2,3-b]pyridin-3-yl)-methanone]	≤ 10 µM	IC50 (Kit): ≤ 10 µM
COc1cc(Cc2c[nH]c3ncccc23)c(F)cc1OCc1ccc(Cl)cc1 [P-1844, 3-[4-(4-Chloro-benzyloxy)-2-fluoro-5-methoxy-benzyl]-1H-pyrrolo[2,3-b]pyridine]		IC50 (TrkA): ≤ 10 µM
CCOc1c(OC(C)c2ccncc2)cccc1C(=O)c1c[nH]c2ncccc12 (stereo not shown) [P-2135, [2-Ethoxy-3-(1-pyridin-4-yl-ethoxy)-phenyl]-(1H-pyrrolo[2,3-b]pyridin-3-yl)-methanone]	≤ 10 µM	
CCOc1c(OCc2ccc(C(F)(F)F)nc2)cccc1C(=O)c1c[nH]c2ncccc12 [P-2129, [2-Ethoxy-3-(6-trifluoromethyl-pyridin-3-ylmethoxy)-phenyl]-(1H-pyrrolo[2,3-b]pyridin-3-yl)-methanone]	≤ 10 µM	
CCOc1c(OCc2ccccc2F)cccc1C(=O)c1c[nH]c2ncccc12 [P-2127, [2-Ethoxy-3-(2-fluoro-benzyloxy)-phenyl]-(1H-pyrrolo[2,3-b]pyridin-3-yl)-methanone]	≤ 10 µM	
CCOc1c(OC(C)c2ccc(Cl)cc2Cl)cccc1C(=O)c1c[nH]c2ncccc12 (stereo not shown) [P-2138, {3-[1-(2,4-Dichloro-phenyl)-ethoxy]-2-ethoxy-phenyl}-(1H-pyrrolo[2,3-b]pyridin-3-yl)-methanone]	≤ 10 µM	
O=C(c1cccc(OCc2c(F)cc(F)cc2F)c1OCC1CC1)c1c[nH]c2ncc(Cl)cc12 [P-2141, (5-Chloro-1H-pyrrolo[2,3-b]pyridin-3-yl)-[2-cyclopropylmethoxy-3-(2,4,6-trifluoro-benzyloxy)-phenyl]-methanone]	≤ 10 µM	
O=C(c1cccc(OCc2ccc(Cl)cc2F)c1OCC1CC1)c1c[nH]c2ncccc12 [P-2120]	≤ 10 µM	IC50 (Kit): ≤ 10 µM
CCOc1c(OCCCN2CCOCC2)cccc1C(=O)c1c[nH]c2ncccc12 [P-2126, [2-Ethoxy-3-(3-morpholin-4-yl-propoxy)-phenyl]-(1H-pyrrolo[2,3-b]pyridin-3-yl)-methanone]	≤ 10 µM	
CCOc1c(OCc2cc(C)nn2C)cccc1C(=O)c1c[nH]c2ncccc12 [P-2125, [3-(2,5-Dimethyl-2H-pyrazol-3-ylmethoxy)-2-ethoxy-phenyl]-(1H-pyrrolo[2,3-b]pyridin-3-yl)-methanone]	≤ 10 µM	
CCOc1c(OCc2cccc(C)n2)cccc1C(=O)c1c[nH]c2ncccc12 [P-2122, [2-Ethoxy-3-(6-methyl-pyridin-2-ylmethoxy)-phenyl]-(1H-pyrrolo[2,3-b]pyridin-3-yl)-methanone]	≤ 10 µM	
COc1cnc2[nH]cc(Cc3cc(OC)c(OCc4ccc(Cl)cc4F)cc3F)c2c1 [P-1885, 3-[4-(4-Chloro-2-fluoro-benzyloxy)-2-fluoro-5-methoxy-benzyl]-5-methoxy-1H-pyrrolo[2,3-b]pyridine]		IC50 (TrkA): ≤ 10 µM
COc1ccc2[nH]c(COc3cc(F)c(Cc4c[nH]c5ncccc45)cc3OC)nc2c1 [P-2113, 2-[5-Fluoro-2-methoxy-4-(1H-pyrrolo[2,3-b]pyridin-3-ylmethyl)-phenoxymethyl]-6-methoxy-1H-benzoimidazole]	≤ 10 µM	IC50 (HGK): ≤ 10 µM
Fc1ccc(OCc2ccccc2)c(F)c1Cc1c[nH]c2ncccc12 [P-1803, 3-(3-Benzyloxy-2,6-difluoro-benzyl)-1H-pyrrolo[2,3-b]pyridine]	≤ 10 µM	
COc1cc(Cc2c[nH]c3ncccc23)c(F)cc1OCc1nc2ccccc2[nH]1 [P-1978, 2-[5-Fluoro-2-methoxy-4-(1H-pyrrolo[2,3-b]pyridin-3-ylmethyl)-phenoxymethyl]-1H-benzoimidazole]		IC50 (TrkA): ≤ 10 µM
COc1cc(Cc2c[nH]c3ncccc23)c(F)cc1OCc1cccnc1 [P-2038, 3-[2-Fluoro-5-methoxy-4-(pyridin-3-ylmethoxy)-benzyl]-1H-pyrrolo[2,3-b]pyridine]		IC50 (TrkA): ≤ 10 µM

Structure (SMILES)	IC50 (Fms)	also measured
CCOc1c(OCc2ccc(-n3ccnc3)cc2)cccc1C(=O)c1c[nH]c2ncccc12 [P-2131, [2-Ethoxy-3-(4-imidazol-1-yl-benzyloxy)-phenyl]-(1H-pyrrolo[2,3-b]pyridin-3-yl)-methanone]	≤ 10 µM	
COc1cc(Cc2c[nH]c3ncc(Cl)cc23)c(F)cc1OCc1nc2ccccc2[nH]1 [P-1976, 2-[4-(5-Chloro-1H-pyrrolo[2,3-b]pyridin-3-ylmethyl)-5-fluoro-2-methoxy-phenoxymethyl]-1H-benzoimidazole]		IC50 (TrkA): ≤ 10 µM
O=C(c1cccc(OCc2ccc(Cl)cc2)c1OCCF)c1c[nH]c2ncccc12 [P-2118, [3-(4-Chloro-benzyloxy)-2-(2-fluoro-ethoxy)-phenyl]-(1H-pyrrolo[2,3-b]pyridin-3-yl)-methanone]	≤ 10 µM	
COc1cc(Cc2c[nH]c3ncccc23)ccc1OCc1ccc(CN2CCN(C)CC2)cc1 [P-1821, 3-{3-Methoxy-4-[4-(4-methyl-piperazin-1-ylmethyl)-benzyloxy]-benzyl}-1H-pyrrolo[2,3-b]pyridine]	≤ 10 µM	
O=C(c1cccc(OCc2ccc(Cl)cc2F)c1OCC(F)(F)F)c1c[nH]c2ncccc12 [P-2139, [3-(4-Chloro-2-fluoro-benzyloxy)-2-(2,2,2-trifluoro-ethoxy)-phenyl]-(1H-pyrrolo[2,3-b]pyridin-3-yl)-methanone]	≤ 10 µM	IC50 (Kit): ≤ 10 µM
CCOc1c(OC(C)c2ccccc2F)cccc1C(=O)c1c[nH]c2ncccc12 (stereo not shown) [P-2133, {2-Ethoxy-3-[1-(2-fluoro-phenyl)-ethoxy]-phenyl}-(1H-pyrrolo[2,3-b]pyridin-3-yl)-methanone]	≤ 10 µM	
CCOc1c(OCc2ccc(N3CCOCC3)nc2)cccc1C(=O)c1c[nH]c2ncccc12 [P-2128, [2-Ethoxy-3-(6-morpholin-4-yl-pyridin-3-ylmethoxy)-phenyl]-(1H-pyrrolo[2,3-b]pyridin-3-yl)-methanone]	≤ 10 µM	
CCOc1c(OCc2c(F)cc(F)cc2F)cccc1C(=O)c1c[nH]c2ncccc12 [P-2137, [2-Ethoxy-3-(2,4,6-trifluoro-benzyloxy)-phenyl]-(1H-pyrrolo[2,3-b]pyridin-3-yl)-methanone]	≤ 10 µM	IC50 (Kit): ≤ 10 µM
CCOc1c(OCc2ccc(Cl)cc2F)cccc1C(=O)c1c[nH]c2ncccc12 [P-2123, [3-(4-Chloro-2-fluoro-benzyloxy)-2-ethoxy-phenyl]-(1H-pyrrolo[2,3-b]pyridin-3-yl)-methanone]	≤ 10 µM	
COc1cc(Cc2c[nH]c3ncc(Cl)cc23)c(F)cc1OCc1nc2cc(F)ccc2[nH]1 [P-2179, 2-[4-(5-Chloro-1H-pyrrolo[2,3-b]pyridin-3-ylmethyl)-5-fluoro-2-methoxy-phenoxymethyl]-5-fluoro-1H-benzoimidazole]	≤ 10 µM	IC50 (TrkA): ≤ 10 µM
CCOc1c(OCc2sc(C)nc2C)cccc1C(=O)c1c[nH]c2ncccc12 [P-2124, [3-(2,4-Dimethyl-thiazol-5-ylmethoxy)-2-ethoxy-phenyl]-(1H-pyrrolo[2,3-b]pyridin-3-yl)-methanone]	≤ 10 µM	
COc1cc(Cc2c[nH]c3ncc(C)cc23)c(F)cc1OCc1nc2cc(Cl)ccc2[nH]1 [P-2184, 5-Chloro-2-[5-fluoro-2-methoxy-4-(5-methyl-1H-pyrrolo[2,3-b]pyridin-3-ylmethyl)-phenoxymethyl]-1H-benzoimidazole]	≤ 10 µM	IC50 (HGK): ≤ 10 µM; IC50 (Kit): ≤ 10 µM
Fc1ccc(OCC(F)(F)F)c(Cl)c1Cc1c[nH]c2ncccc12 [P-2148, 3-[2-Chloro-6-fluoro-3-(2,2,2-trifluoro-ethoxy)-benzyl]-1H-pyrrolo[2,3-b]pyridine]	≤ 10 µM	IC50 (Kit): ≤ 10 µM
O=C(c1cccc(OCc2ccc(Cl)cc2F)c1OCC(F)F)c1c[nH]c2ncccc12 [P-2119, [3-(4-Chloro-2-fluoro-benzyloxy)-2-(2,2-difluoro-ethoxy)-phenyl]-(1H-pyrrolo[2,3-b]pyridin-3-yl)-methanone]	≤ 10 µM	
Fc1cc(OCc2nc3ccccc3[nH]2)cc(F)c1Cc1c[nH]c2ncccc12 [P-2102, 2-[3,5-Difluoro-4-(1H-pyrrolo[2,3-b]pyridin-3-ylmethyl)-phenoxymethyl]-1H-benzoimidazole]	≤ 10 µM	IC50 (HGK): ≤ 10 µM
CCOc1c(OCc2ccc(F)cc2F)cccc1C(=O)c1c[nH]c2ncccc12 [P-2132, [3-(2,4-Difluoro-benzyloxy)-2-ethoxy-phenyl]-(1H-pyrrolo[2,3-b]pyridin-3-yl)-methanone]	≤ 10 µM	
